Data taken from article PMC4433323, “Structural and Kinetic Characterization of Thymidine Kinase from Leishmania major” (PLoS Neglected Tropical Diseases, 2015).
Values joined by “and” are separate entries in the source; they are usually repeats but may differ in a detail not shown here. Equal entries are not always repeated. Where two headings read alike, the source gives them in different places. Marks after values point to notes of the source that are not given here.

Key:
[1] = target: T1, LmTK (Leishmania major, UniProt Q4QC75); assay: TK activity, enzyme coupled spectrophotometric assay (substrate kinetics); type: biochemical; conditions: for kcat / Vmax / Km: recombinant full-length LmTK; for Vmax / Km: 25°C, pH 7.4; for Activity measurements at 10 mM substrate concentration (Vmax) / rate of phosphorylation by LmTK, fold lower than the Vmax value exhibited by TbTK: 10 mM substrate
Protocol: (§1) TK activity was measured spectrophotometrically using an enzyme coupled assay in buffer containing 50 mM Tris-HCl pH 7.4, 5 mM MgCl2, 50 mM KCl, 1 mM DTT, 0.5 mM ATP, 0.5 mM phosphoenolpyruvate (PEP), 0.2 mM NADH, 0.2 mM thymidine (dThd), 2 U pyruvate kinase (PK), 4 U lactate dehydrogenase (LDH) and variable amounts of enzyme. The reaction rate (AU/min) was registered as a decrease in absorbance at 340nm (NADH extinction coefficient) at 25°C at pH 7.4 using a multicell Hewlett-Packard 8452 diode array UV-VIS spectrophotometer. Diluted stocks of frozen full-length LmTK were freshly prepared in assay buffer before the measurements. […]

[2] = system: hTK1; set-up: method as in Munch-Peterson et al. [43]; conditions: 37°C; ref Munch-Peterson et al. [43]; cited from earlier work
[3] = target: T1, LmTK; assay: Inhibition assay of LmTK activity; type: biochemical; conditions: for IC50: 22.3 nM LmTK, pH 7.4
Protocol: TK activity was measured spectrophotometrically using an enzyme coupled assay in buffer containing 50 mM Tris-HCl pH 7.4, 5 mM MgCl2, 50 mM KCl, 1 mM DTT, 0.5 mM ATP, 0.5 mM phosphoenolpyruvate (PEP), 0.2 mM NADH, 0.2 mM thymidine (dThd), 2 U pyruvate kinase (PK), 4 U lactate dehydrogenase (LDH) and variable amounts of enzyme. The reaction rate (AU/min) was registered as a decrease in absorbance at 340nm (NADH extinction coefficient) at 25°C at pH 7.4 using a multicell Hewlett-Packard 8452 diode array UV-VIS spectrophotometer. Diluted stocks of frozen full-length LmTK were freshly prepared in assay buffer before the measurements.
The method consists in determining experimental values for the initial velocities, v, as described above, at increasing inhibitor concentrations, added before initiating the reaction. LmTK and dThd concentrations were 22.3 nM and 25 μM respectively. The concentration of inhibitor that inhibits the activity by 50% (IC50) was calculated.

[4] = target: hTK1; set-up: method as in PMID 3457791; conditions: cited from earlier work
[5] = system: Leishmania intracellular amastigote; set-up: method as in PMID 20922414; conditions: cited from earlier work
[6] = target: T1, LmTK; assay: Inhibition assay of LmTK activity; type: biochemical
[7] = system: TK from rat liver; set-up: method as in PMID 4539354; conditions: similar conditions (equimolar dTTP and dThd); cited from earlier work
[8] = target: T1, LmTK; assay: TK activity, enzyme coupled spectrophotometric assay (substrate kinetics); type: biochemical; conditions: saturating dThd (25 μM)
[9] = substrate: Cc1cn([C@H]2C[C@H](O)[C@@H](CO)O2)c(=O)[nH]c1=O; assay: as above; type: biochemical, Leishmania major; conditions: other: recombinant full-length LmTK, 25°C, pH 7.4
Protocol: as §1

[10] = target: the molecule itself; assay: AUC; sedimentation velocity, unliganded C-terminally His-tagged LmTK (dTTP dialysed away), 0.15 and 0.45 mg/mL, SEC buffer (10 mM Tris pH 8.0, 200 mM NaCl, 1 mM DTT), 42 000 rpm, 20°C; c(s) analysis with SEDFIT
[11] = target: the molecule itself; assay: crystal structure; LmTK-dThd (with phosphate), 1.4 M Na/K PO4 pH 5.4, 1 mM dThd, 1 mM AppNHp, 3 mM MgCl2; space group P6(5)22, 2 protomers per asymmetric unit, 2.74 Å

In the case of Nc1nc2c(ncn2[C@@H]2O[C@H](CO)[C@@H](O)[C@H]2O)c(=O)[nH]1 [Guo], the “Activity measurements at 10 mM substrate concentration (Vmax)” value (shortened to “Activity measurements”) [1] is reported as 0.00 ^a μmol∙min^-1∙mg^-1.

In the case of O=c1ccn([C@H]2C[C@H](O)[C@@H](CO)O2)c(=O)[nH]1 [dUrd], the Km [2] is listed as 9 µM, the Vmax [2] is listed as 11.87 µmol/min/mg and the kcat [2] is listed as 5.07 s⁻¹. The “KM fold higher than that for dThd” value [1] was “approximately 10 fold”, the kcat [1] was 3.06 s⁻¹ and the Vmax [1] was 5.45 ± 0.77 µmol/min/mg. It also gave a Km ([1]; read-out: KM) of 11.1 ± 2.7 µM.

In the case of Nc1ncnc2c1ncn2[C@@H]1O[C@H](CO)[C@@H](O)[C@H]1O [Ado, adenosine], the “inhibition of LmTK” value ([3]; tested at 5 mM) is reported as “no inhibition” and the “Activity measurements” value [1] is reported as 0.00 ^a μmol∙min^-1∙mg^-1.

In the case of O=c1[nH]cnc2c1ncn2[C@H]1C[C@H](O)[C@@H](CO)O1 [dIno], the “Activity measurements” value [1] is reported as 0.04 ^a μmol∙min^-1∙mg^-1 and the “rate of phosphorylation by LmTK, fold lower than the Vmax value exhibited by TbTK” value [1] is reported as 23 fold.

With C[C@H]1O[C@@H](n2cc(F)c(=O)[nH]c2=O)[C@H](O)[C@@H]1O [5F-5’dU] the “phosphorylation by LmTK (in words)” value [1] was “is not” and the “Activity measurements” value [1] was 0.00 ^a μmol∙min^-1∙mg^-1.

In the case of O=c1[nH]c(=O)n([C@H]2C[C@H](O)[C@@H](CO)O2)cc1F [5F-2’dU], the Km [2] is listed as 2.2 µM, the Vmax [2] is listed as 8.99 µmol/min/mg and the kcat [2] is listed as 3.84 s⁻¹. The kcat [1] was 4.66 s⁻¹, the Vmax [1] was 8.29 ± 1.12 µmol/min/mg and the Km ([1]; read-out: KM) was 5.7 µM and 5.72 µM.

With Nc1nc2c(ncn2[C@H]2C[C@H](O)[C@@H](CO)O2)c(=O)[nH]1 [dGuo] the “Activity measurements” value [1] was 0.04 ^a μmol∙min^-1∙mg^-1 and the “rate of phosphorylation by LmTK, fold lower than the Vmax value exhibited by TbTK” value [1] was 10 fold.

Nc1ccn([C@H]2C[C@H](O)[C@@H](COP(=O)(O)OP(=O)(O)OP(=O)(O)O)O2)c(=O)n1 [dCTP] showed an IC50 ([3]; 25 μM dThd, 0.5 mM ATP) of 1250 µM.

For Nc1ncnc2c1ncn2C1CC(O)C(CO)O1 (stereo not drawn) [dAdo], the “Activity measurements” value [1] was 0.01 ^a μmol∙min^-1∙mg^-1 and the “rate of phosphorylation by LmTK, fold lower than the Vmax value exhibited by TbTK” value [1] was 6 fold.

In the case of O=c1[nH]c(=O)n([C@H]2C[C@H](O)[C@@H](CO)O2)cc1Br [5Br-2’dU], the kcat [1] is reported as 3.47 s⁻¹, the Vmax [1] is reported as 6.17 ± 0.19 µmol/min/mg and the Km ([1]; read-out: KM) is reported as 2 µM and 2.05 µM.

For O=c1[nH]c(=O)n([C@H]2C[C@H](O)[C@@H](CO)O2)cc1CO [5CH2OH-2’dU], the “phosphorylation by LmTK (in words)” value [1] was “also phosphorylated”, the kcat [1] was 2.82 s⁻¹ and the Vmax [1] was 5.01 ± 1.30 µmol/min/mg. The Km ([1]; read-out: KM) was 96.7 ± 23.1 µM.

In the case of O=c1ccn([C@@H]2O[C@H](CO)[C@@H](O)[C@H]2O)c(=O)[nH]1 [Urd], the kcat [1] is reported as 0.44 s⁻¹, the Vmax [1] is reported as 0.79 ± 0.12 µmol/min/mg and the Km ([1]; read-out: KM) is reported as 1460 ± 158 µM.

For Cc1cn([C@H]2C[C@H](O)[C@@H](COP(=O)(O)OP(=O)(O)OP(=O)(O)OP(=O)(O)OP(=O)(O)OC[C@H]3O[C@@H](n4cnc5c(N)ncnc54)[C@H](O)[C@@H]3O)O2)c(=O)[nH]c1=O [Ap5dT, P1-(5-adenosyl)-P5-(5-thymidyl) pentaphosphate], the IC50 ([3]; 25 μM dThd, 0.5 mM ATP) is listed as 1.1 µM and the Ki [4] is listed as 0.12 µM.

Nc1nc2c(ncn2[C@H]2C[C@H](O)[C@@H](COP(=O)(O)OP(=O)(O)OP(=O)(O)O)O2)c(=O)[nH]1 [dGTP] gave an IC50 ([3]; 25 μM dThd, 0.5 mM ATP) of 549 µM.

With Nc1ccn([C@H]2C[C@H](O)[C@@H](CO)O2)c(=O)n1 [dCyd] the “Activity measurements” value [1] was 0.07 ^a μmol∙min^-1∙mg^-1.

In the case of Nc1ccn([C@@H]2O[C@H](CO)[C@@H](O)[C@H]2O)c(=O)n1 [Cyd], the “Activity measurements” value [1] is reported as 0.00 ^a μmol∙min^-1∙mg^-1.

In the case of Cc1cn([C@H]2C[C@H](N=[N+]=[N-])[C@@H](CO)O2)c(=O)[nH]c1=O [AZT, 3’-azido-3’-deoxythymidine], the Km [2] is given as 0.6 µM, the Vmax [2] is given as 4.96 µmol/min/mg and the kcat [2] is given as 2.12 s⁻¹. The “Leishmania intracellular amastigote growth (in words)” value [5] was “inhibit Leishmania intracellular amastigote growth”, the kcat [1] was 1.97 s⁻¹ and the Km [1] was 3 µM and 3.04 µM. For the same molecule, the Vmax [1] was 3.52 ± 0.56 µmol/min/mg.

With Cc1cn([C@H]2C[C@H](O)[C@@H](COP(=O)(O)OP(=O)(O)OP(=O)(O)O)O2)c(=O)[nH]c1=O [dTTP, 2'-deoxythymidine triphosphate] the “fold increase in the K0.5 value for ATP compared to absence of dTTP” value ([6]; 3.5 μM dTTP, ATP 50–500 μM, 25 μM dThd) was 5 fold, the enzyme inhibition ([6]; 0.2 mM dTTP, equimolar 0.2 mM dThd, 0.5 mM ATP) was 98% and the “Hill coefficient (h) of inhibition” value ([3]; 25 μM dThd, 0.5 mM ATP) was 1.6. The IC50 ([3]; 25 μM dThd, 0.5 mM ATP) was 3.8 ± 0.07 µM and the inhibition [7] was 87%.

For Cc1cn([C@H]2C[C@H](O)[C@@H](CO)O2)c(=O)[nH]c1=O [dThd, 2’-deoxythymidine], the “KM fold lower than that reported for TbTK” value ([1]; comparison with TbTK ref 35) was ~ 7 fold.

O=c1ccn([C@H]2C[C@H](O)[C@@H](COP(=O)(O)OP(=O)(O)OP(=O)(O)O)O2)c(=O)[nH]1 [dUTP] gave an IC50 ([3]; 25 μM dThd, 0.5 mM ATP) of 187 µM.

For Nc1ncnc2c1ncn2[C@@H]1O[C@H](COP(=O)(O)OP(=O)(O)OP(=O)(O)O)[C@@H](O)[C@H]1O [ATP], the “Hill coefficient (positive cooperativity)” value [8] was 1.6 and the K0.5 ([8]; fit to Hill equation) was 58.6 ± 2.4 µM.

Molecule Cc1cn([C@H]2C[C@H](O)[C@@H](COP(=O)(O)O)O2)c(=O)[nH]c1=O [dTMP, thymidine monophosphate] has an IC50 ([3]; 25 μM dThd, 0.5 mM ATP) of 165 µM.

B1: LmTK (Leishmania major) (protein)
chain: FRGRIELIIGPMFAGKTTELMRRVKREIHARRSCFVIKYSKDTRYDEHNVASHDQLMLRAQAAVSQLTEVRDTWKRFDVLAIDEGQFFSDLVDFCNTAADAGKVVMVSALDGDYRRKPFGQICELVPYCEAVDKLTAVCMMCHEQPACFTRRTVNVEQQELIGGADMYIATCRECYSKQQLPSIEEMRTQRMAIKEVEKRYLGLSDKRATASPQTPEKPAGGWCTKAGVATLPTMVKEGAASSGASAGMKSGRGLCEMQAFTTETPKYQRVEPACTASAASSE
B1 showed a Km [9] of 1.10 ± 0.33 µM, a Vmax [9] of 4.66 µmol/min/mg and a kcat [9] of 2.62 s⁻¹. For the same molecule, the kcat/Km [9] was 2.38e+06 M⁻¹ s⁻¹.

B2: C-terminally His-tagged truncated L. major thymidine kinase (LmTK), amino acids 2-185 (enzyme, L. major strain Friedlin, UniProt Q4QC75 2-185, looked up)
chain: FRGRIELIIGPMFAGKTTELMRRVKREIHARRSCFVIKYSKDTRYDEHNVASHDQLMLRAQAAVSQLTEVRDTWKRFDVLAIDEGQFFSDLVDFCNTAADAGKVVMVSALDGDYRRKPFGQICELVPYCEAVDKLTAVCMMCHEQPACFTRRTVNVEQQELIGGADMYIATCRECYSKQQLPSI
notes: Thymidine kinase of Leishmania major strain Friedlin (GeneDB LmjF.21.1210), C-terminally truncated version spanning amino acids 2-185; Non-cleavable C-terminal His tag; Stabilised with dTTP/MgCl2 or dThd/AppNHp/MgCl2; also called C-terminal histagged LmTK; LmTK-dTTP; source: Sf9 insect cells (baculovirus), purified (HisTrap, Superdex 200 SEC); not shown: His6, C-terminal, kept
In the case of B2, the “stoichiometry N” value [10] is reported as 4.

B3: Truncated L. major thymidine kinase (LmTK), amino acids 2-185, as crystallised with dThd/AppNHp and with AP5dT (enzyme, L. major strain Friedlin, UniProt Q4QC75 2-185, looked up)
chain: FRGRIELIIGPMFAGKTTELMRRVKREIHARRSCFVIKYSKDTRYDEHNVASHDQLMLRAQAAVSQLTEVRDTWKRFDVLAIDEGQFFSDLVDFCNTAADAGKVVMVSALDGDYRRKPFGQICELVPYCEAVDKLTAVCMMCHEQPACFTRRTVNVEQQELIGGADMYIATCRECYSKQQLPSI
notes: Thymidine kinase of Leishmania major strain Friedlin (GeneDB LmjF.21.1210), C-terminally truncated version spanning amino acids 2-185; both preparations (each with dThd, AppNHp, MgCl2) were used for crystallization screening; also called LmTK-dThd; LmTK-dThd-AppNHp; source: Sf9 insect cells (baculovirus), purified (HisTrap, Superdex 200 SEC)
With B3 the “stoichiometry N” value [11] was 4.
